One experiment addresses T1, CDK2-Cyclin A (Homo sapiens, UniProt P24941).
T1 construct: purchased ProQinase
As to the kind of experiment: FRET-based LANCE Ultra in vitro enzymatic kinase assay, CDK2. It is filed as biochemical. How it is done:
(§1) IC50 values for CDK inhibitors were determined using the fluorescence resonance energy transfer (FRET)-based LANCE Ultra KinaSelect Ser/Thr kit (Perkin Elmer). Kinase activity and inhibition were measured according to the manufacturer’s instructions and as previously described. […] FRET signals were recorded in a time-resolved manner in a Perkin Elmer EnVision reader. Purified cyclin-kinase pairs were obtained from the following suppliers: Carna Biosciences (CDK1-Cyclin B1, CDK6-Cyclin D3, CDK7-Cyclin H-MAT1), ProQinase (CDK2-Cyclin A) and Invitrogen (CDK9-Cyclin T1).
(§2) Data were analyzed with GraphPad Prism 7 software. Differences were assessed by unpaired or paired Student t tests if not indicated otherwise. Two-sided probabilities of less than 0.05 were considered significant. Nonlinear regression sigmoidal dose-response curve fit was used to determine the IC50 values and to generate graphs.

Experiment [1] relates to panel of 219 recombinant kinases. In words: Broad in vitro selectivity kinase profiling. The class given is biochemical. To be noted: 1 μM LDC526, 219 kinases. How it is done: IC50 values for CDK inhibitors were determined using the fluorescence resonance energy transfer (FRET)-based LANCE Ultra KinaSelect Ser/Thr kit (Perkin Elmer). Kinase activity and inhibition were measured according to the manufacturer’s instructions and as previously described. […] Subsequently, phosporylation was detected by addition of specific europium (Eu)-labeled anti-phospho-antibodies (2 nM), which upon binding to the phospho-peptide give rise to a FRET signal. FRET signals were recorded in a time-resolved manner in a Perkin Elmer EnVision reader. Purified cyclin-kinase pairs were obtained from the following suppliers: Carna Biosciences (CDK1-Cyclin B1, CDK6-Cyclin D3, CDK7-Cyclin H-MAT1), ProQinase (CDK2-Cyclin A) and Invitrogen (CDK9-Cyclin T1). Broad selectivity kinase in vitro profiling with LDC526 was carried out using n=219 recombinant kinases (Millipore/Merck, Darmstadt, Germany).

The next experiment concerns the target T2, CDK1-Cyclin B1 (Homo sapiens, UniProt P06493).
T2 construct: purchased Carna Biosciences
In words: FRET-based LANCE Ultra in vitro enzymatic kinase assay, CDK1. It is filed as biochemical. How it is done: as §1, §2
In general terms: Time-resolved FRET reads energy transfer from a long-lived donor to a nearby acceptor.

The target of a further experiment is T3, CDK9-Cyclin T1 (Homo sapiens, UniProt P50750).
T3 construct: purchased Invitrogen
T3 sequence (P50750 whole entry): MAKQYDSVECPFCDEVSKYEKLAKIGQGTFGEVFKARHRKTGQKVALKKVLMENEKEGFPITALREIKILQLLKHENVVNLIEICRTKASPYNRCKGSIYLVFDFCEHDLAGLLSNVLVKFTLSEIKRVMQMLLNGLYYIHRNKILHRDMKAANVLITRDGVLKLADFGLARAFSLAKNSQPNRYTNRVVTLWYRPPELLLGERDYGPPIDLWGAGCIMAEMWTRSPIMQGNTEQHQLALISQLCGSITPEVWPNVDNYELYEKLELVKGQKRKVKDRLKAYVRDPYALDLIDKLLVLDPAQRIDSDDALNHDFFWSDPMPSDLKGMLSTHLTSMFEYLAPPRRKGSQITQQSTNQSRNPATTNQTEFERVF
T3 sequence (O60563 whole entry partner): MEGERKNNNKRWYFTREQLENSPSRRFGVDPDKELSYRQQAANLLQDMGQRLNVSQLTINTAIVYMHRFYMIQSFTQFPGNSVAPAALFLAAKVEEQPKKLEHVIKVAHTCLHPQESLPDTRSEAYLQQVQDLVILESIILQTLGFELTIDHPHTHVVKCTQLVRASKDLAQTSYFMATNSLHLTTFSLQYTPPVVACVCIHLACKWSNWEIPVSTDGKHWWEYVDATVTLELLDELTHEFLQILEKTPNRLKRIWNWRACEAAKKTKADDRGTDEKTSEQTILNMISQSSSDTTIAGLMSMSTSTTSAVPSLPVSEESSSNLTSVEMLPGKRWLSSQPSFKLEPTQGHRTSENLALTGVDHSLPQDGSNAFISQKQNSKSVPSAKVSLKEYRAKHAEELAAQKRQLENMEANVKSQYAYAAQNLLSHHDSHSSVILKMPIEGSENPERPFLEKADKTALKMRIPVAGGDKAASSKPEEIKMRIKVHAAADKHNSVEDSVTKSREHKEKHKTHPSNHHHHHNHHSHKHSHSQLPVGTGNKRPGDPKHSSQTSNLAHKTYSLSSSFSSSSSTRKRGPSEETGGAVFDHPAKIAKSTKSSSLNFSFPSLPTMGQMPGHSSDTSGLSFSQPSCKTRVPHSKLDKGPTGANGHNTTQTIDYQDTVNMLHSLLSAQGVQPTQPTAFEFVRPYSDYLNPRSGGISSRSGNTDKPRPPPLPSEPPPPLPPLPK
As to the kind of experiment: FRET-based LANCE Ultra in vitro enzymatic kinase assay, CDK9. It is filed as biochemical. The following applies: CDK9 versus other CDKs. Here is the method:
as §1, §2

The subject of a further experiment is MEC-1 cells. As to the kind of experiment: MEC-1 cell line apoptosis, viability, MCL-1/BCL-2 and cell cycle (flow cytometry). It is filed as cell-based. How it is done:
(§3) The MEC-1 cell line was obtained from the DSMZ (Braunschweig, Germany) and was cultured in RPMI (10% fetal bovine serum). A LDC526 stock solution was prepared with DMSO, diluted and added to the cultures to reach the specified concentrations. Samples (percentage of CD19+CD5+ CLL cells >90%) of n=37 CLL patients (Table 1) and n=6 healthy normal donor controls were used for experiments after obtaining informed consent according to institutional guidelines, approved by the Ethics Commission of the University of Essen-Duisburg. Peripheral blood mononuclear cells (PBMC) were isolated using Lymphoprep ([…] Technologies, Cologne, Germany) density gradient centrifugation and were used directly for NSG transplantation or in vitro experiments. Untouched normal donor B cells were isolated with a B cell isolation kit (Miltenyi, Bergisch Gladbach, Germany) according to the manufacturer’s instructions. For in vitro experiments, cells were maintained in RPMI supplemented with 10% fetal bovine serum, penicillin and streptomycin.
Apoptosis and cell death were determined by using Annexin V (BD Biosciences, Heidelberg, Germany) and 4′,6-Diamidin-2-phenylindol (DAPI, Sigma-Aldrich) staining. Erythrocytes of murine peripheral blood samples were lysed with NH4Cl hypotonic solution. Single cell suspensions of murine spleens were prepared as previously described. Murine cells were stained with antibodies directed against murine CD3 (clone 145-2C11), CD5 (53-7.3) and CD19 (1D3), respectively. For the detection of human cells in NSG spleens antibodies against human CD3 (clone SK7), CD4 (SK3), CD5 (L17F12), CD8 (SK1), CD19 (J3-119 or SJ25C1) and CD45 (2D1) were used (purchased from BD Bioscience, Biolegend and Beckman Coulter). Flow cytometric analysis was carried out on a LSRII flow cytometer (BD Biosciences, Heidelberg, Germany). Flow cytometric data were analyzed with BD FACSDiva or FlowJo software (FLOWJO, LLC, Ashland, OR, USA). Intracellular staining for MCL-1 and BCL-2 (anti-MCL-1 [clone D2W9E, Cell Signaling Technology, Leiden, The Netherlands] and matched isotype control [clone DA1E, Cell Signaling Technology]; anti-BCL-2 [clone Bcl-2/100, BD Bioscience] and matched isotype control [clone MOPC-21, BD Bioscience]) within MEC-1 and primary CLL cells was performed with the FoxP3 / Transcription factor staining buffer set (eBioscience/Thermo Fisher Scientific, Dreieich, Germany) according to the manufacturer’s instructions. Before permeabilization and antibody incubation cells were stained with a fixable viability dye (eFluor 450, eBioscience/Thermo Fisher Scientific). Before adding the anti-MCL-1 and anti-BCL-2 antibodies permeabilized cells were blocked with 2% mouse serum and 2% rabbit serum (Sigma-Aldrich) in permeabilization buffer. Intracellullar murine lymphocyte staining for Bcl-2 was carried out with the BD Cytofix/Cytoperm kit according to the manufacturer’s instructions. A Hamster Anti-mouse Bcl-2 (clone 3F119, BD Biosciences) and a corresponding isotype control (clone A19-3) were used. Dead cells and doublets were excluded by and FSC/SSC gating and positive DAPI or eFluor 450 viability dye staining, respectively. To assess the impact of LDC526 on the cell-cycle status of MEC-1 cells we used the BrdU Flow Kit according to the manufacturer’s protocol (BD Bioscience). […]
(§4) Data were analyzed with GraphPad Prism 7 software. Differences were assessed by unpaired or paired Student t tests if not indicated otherwise. […]
(In general: A flow cytometer gives signals particle by particle.)

The test system of experiment [2] is non-malignant normal donor B cells. As to the kind of experiment: Normal donor B cell viability (Annexin V/DAPI, absolute counts). To be noted: Homo sapiens, read-out: IC50, viable non-malignant B cells. It is filed as cell-based. How it is done: as §3, with “For in vitro experiments, cells were maintained in RPMI supplemented with 10% fetal bovine serum, penicillin and streptomycin.” left out
Apoptosis and cell death were determined by using Annexin V (BD Biosciences, Heidelberg, Germany) and 4′,6-Diamidin-2-phenylindol (DAPI, Sigma-Aldrich) staining. […] Flow cytometric data were analyzed with BD FACSDiva or FlowJo software (FLOWJO, LLC, Ashland, OR, USA). […]
as §4

pIC50: −log10 of the molar value. Like-named read-outs stand apart in the source and are kept apart here.

T2 sequence (P06493 whole entry): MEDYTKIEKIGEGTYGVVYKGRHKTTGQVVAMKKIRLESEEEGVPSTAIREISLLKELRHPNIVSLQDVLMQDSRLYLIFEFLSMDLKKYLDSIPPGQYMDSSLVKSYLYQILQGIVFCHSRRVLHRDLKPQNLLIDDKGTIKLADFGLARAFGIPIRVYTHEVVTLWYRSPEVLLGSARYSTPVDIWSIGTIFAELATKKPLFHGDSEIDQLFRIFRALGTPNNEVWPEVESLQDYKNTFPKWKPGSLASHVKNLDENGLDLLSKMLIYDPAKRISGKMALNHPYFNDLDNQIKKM
T2 sequence (P14635 whole entry partner): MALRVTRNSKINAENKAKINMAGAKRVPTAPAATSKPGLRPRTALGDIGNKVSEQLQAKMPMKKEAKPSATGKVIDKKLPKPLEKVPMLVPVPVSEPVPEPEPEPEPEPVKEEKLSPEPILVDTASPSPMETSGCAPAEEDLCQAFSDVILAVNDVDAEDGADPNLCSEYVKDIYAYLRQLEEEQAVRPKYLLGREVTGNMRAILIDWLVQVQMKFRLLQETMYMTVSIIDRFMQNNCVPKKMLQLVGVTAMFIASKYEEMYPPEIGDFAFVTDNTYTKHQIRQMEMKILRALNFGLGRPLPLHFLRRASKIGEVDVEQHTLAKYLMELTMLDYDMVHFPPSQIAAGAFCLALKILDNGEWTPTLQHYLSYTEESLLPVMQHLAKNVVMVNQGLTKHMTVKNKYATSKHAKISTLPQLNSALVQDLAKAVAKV

As to `COc1cc(F)ccc1-c1ncnc(Nc2cccc(CS(N)(=O)=O)c2)n1` [LDC526, (3-((4-(4-fluoro-2-methoxyphenyl)-1,3,5-triazin-2-yl)amino)phenyl)methane-sulfonamide], the “selectivity versus CDK9 compared to CDK2” value at CDK2-Cyclin A was 52 fold. The “share of tested kinases still displaying an activity of greater than 80%” value in experiment [1] was “More than 85%”. For the same molecule, the “selectivity versus CDK9 compared to CDK1” value at CDK1-Cyclin B1 is 82 fold. Also, the “selectivity against other CDKs” value at CDK9-Cyclin T1 was “at least 50 fold”. Besides, in the experiment on MEC-1 cells (4 hours, 500 nM and 1 μM), the “MEC-1 apoptosis (Annexin V+, DAPI-)” value was “significantly increased MEC-1 apoptosis”. The “intracellular MCL-1 protein levels in MEC-1” value in the experiment with MEC-1 cells (4 hours, increasing concentrations) is reported as “reduced”. Moreover, in the experiment on MEC-1 cells (24 hours, 10 μM), the “MEC-1 S-phase entry (BrdU)” value is “significantly decreased”. Further, the “MEC-1 cell cycle (BrdU)” value with MEC-1 cells (24 hours, concentrations up to 1 μM) was “did not alter the cell cycle”. In addition, the pIC50 (commonly the negative decadic logarithm of the IC50, by convention in mol/L) was 6.26 with MEC-1 cells (Homo sapiens, MEC1, 48 hours incubation, read-out: IC50, MEC-1 absolute viable cell numbers); 6.05 in experiment [2] (24 hours incubation); 5.83 in experiment [2] (48 hours incubation).

The record behind these values is paper PMC5995184, “Potent anti-leukemic activity of a specific cyclin-dependent kinase 9 inhibitor in mouse models of chronic lymphocytic leukemia” (Oncotarget, 2018).
